One assay concerns the target p53(Y220C)_NUGC-3 (Homo sapiens, UniProt P04637, Y220C). Put plainly: Reporter gene assay (NUGC-3_P53_Luc cells). Format: cell-based. Conditions: 6 hours, 37 °C, luciferase, normalized to Ref-1a 10 μM, EC50 = concentration at 50% Activity, read-out: p53(Y220C)_NUGC-3 EC50. How it is done:
NUGC-3_P53_Luc single clonal cell line was established using pGL4.38[luc2P/p53 RE/Hygro] Vector (E365A, promega). NUGC-3_P53_Luc single clonal cells were cultured in 37 °C cell incubator before use. NUGC-3_P53_Luc cells were collected and washed twice with PBS to remove phenol red and then resuspended in medium to a proper concentration. Tested compound dilutions were transferred into 384 well assay plates (PerkinElmer). A desired number of cells was seeded into the assay plate and cultured for 6 hours at 37 °C cell incubator. Britelite plus Luciferase Assay Reagent were added into each well and the luminescence value was recorded on Envision. The percent of activity value of compounds treated wells was normalized between high control and low control. Wells containing cells and Ref-la (10 μM) served as high control, and wells containing cells and same percentage of DMSO served as low control. Activity value (%)=(Luminescence readoutCompound treated−Luminescence readoutLow control)/(Luminescence readoutHigh control−Luminescence readoutLow control)*100%. Then the data were analyzed either by fitting a 4-parameter logistic model or by Excel to calculate EC50 values and the EC50 was the concentration at 50% Activity on the curve.
In general terms: A reporter such as luciferase makes a cellular process visible.

Another assay concerns the target T1, p53(Y220C) (Homo sapiens, UniProt P04637, Y220C).
T1 construct: His-p53 Y220C (94-294) protein
Put plainly: In vitro DNA binding assay (HTRF), His-p53 Y220C (94-294) with biotinylated p53 consensus DNA. Format: biochemical. How it is done:
After His-p53 Y220C (94-294) protein was placed with a compound in the present of MAb Anti His-Tb cryptate (Cisbio, Cat. NO. 61HI2TLA) in a 384 well microplate (Greiner) for 15 min at 25 °C, the assay plate was transferred into 27 °C incubator and incubated for 60 min. Biotinalyted p53 consensus DNA (ID: p53-SEQUENCE 2 —F: 5′(biotin)-[…] 3′ —R: 5′ […] 3′) was added into the assay plate in the present of Streptaidin-d2 (Cisbio, Cat. NO. 610SADLF) cryptate (Final concentration: 20 mM HEPES pH=7.4, 75 mM KCl, 1 mM MgCl2, 0.1% (w/v) BSA, 1 mM DTT, 2.5 nM His-P53 Y220C (94-294) protein, 0.33 nM MAb Anti His-Tb cryptate, 2.5 nM Streptaidin-d2 cryptate, 10 nM Biotinalyted DNA) and incubated for another 60 min. Wells containing 2 μM reference compound Ref-1a served as high control, and wells containing same percentage of DMSO served as low control. Homogeneous time-resolved fluorescence (HTRF) signals were read on Tecan Spark multimode microplate reader. HTRF ratios for each individual well were calculated by equation: HTRF ratio=(Signal F665/Signal F620)*1000. The percent of activation of compounds treated wells were normalized between high control and low control (% Activation=(HTRF ratiocompound treated−HTRF ratiolow control)/(HTRF ratiohigh control−HTRF ratiolow control)*100%). Then the data were analyzed either by fitting a 4-parameter logistic model or by Excel to calculate EC50 values. And the EC50 was the concentration at 50% Activation on the curve.
A general note: In TR-FRET formats the signal depends on donor and acceptor labels being close together.

Where [1] appears, read: HTRF, 27 °C, His-p53 Y220C (94-294) 2.5 nM, biotinylated DNA 10 nM, normalized to 2 μM Ref-1a, EC50 = concentration at 50% Activation, read-out: p53(Y220C) EC50.

Where two headings read alike, the source gives them in different places.

For `COc1cc(P(C)(C)=O)ccc1NCC#Cc1sc2c(N[C@@H]3CC[N@@+](C)([O-])C[C@@H]3F)cccc2c1CC(F)(F)F` (single isomer, unassigned) [Example 7], the EC50 on p53(Y220C)_NUGC-3 was 3940 nM; at p53(Y220C) (setting [1]) it was 81 nM.

Take `COc1cc(S(C)(=O)=O)ccc1NCC#Cc1cc2c(N[C@@H]3CCN(C)C[C@@H]3F)cccc2n1CC(F)(F)F` [Ref-1a, reference compound]: the EC50 at p53(Y220C)_NUGC-3 worked out at 50 nM.

As to `COc1cc(P(C)(C)=O)ccc1NCC#Cc1sc2c(NC3CCS(=N)(=O)CC3)cccc2c1CC(F)(F)F` (stereo not drawn) [Example 6, (4-((3-(7-((1-imino-1-oxidohexahydro-1l6-thiopyran-4-yl)amino)-3-(2,2,2-trifluoroethyl)benzo[b]thiophen-2-yl)prop-2-yn-1-yl)amino)-3-methoxyphenyl)dimethylphosphine oxide], the EC50 on p53(Y220C) (setting [1]) amounted to 209 nM.

Consider `COc1cc(P(C)(C)=O)ccc1NCC#Cc1sc2c(NC3CCN(C)CC3)nccc2c1CC(F)(F)F` [Example 4, (3-methoxy-4-((3-(7-((1-methylpiperidin-4-yl)amino)-3-(2,2,2-trifluoroethyl)thieno[2,3-c]pyridin-2-yl)prop-2-yn-1-yl)amino)phenyl)dimethylphosphine oxide], for which the EC50 at p53(Y220C) (setting [1]) turned out to be 353 nM.

For the compound `COc1cc(P(C)(C)=O)ccc1NCC#Cc1sc2c(N[C@@H]3CC[N@+](C)([O-])C[C@@H]3F)cccc2c1CC(F)(F)F` (single isomer, unassigned) [Example 10], the EC50 was 11100 nM at p53(Y220C)_NUGC-3 and 53 nM at p53(Y220C) (setting [1]).

For the compound `COc1cc([S@](C)(=N)=O)ccc1NCC#Cc1sc2c(N[C@@H]3CC[N@@+](C)([O-])C[C@@H]3F)cccc2c1CC(F)(F)F` (single isomer, unassigned) [Example 9], the EC50 on p53(Y220C)_NUGC-3 was 1900 nM; at p53(Y220C) (setting [1]) it was 62 nM.

With `COc1cc([S@@](=N)(=O)C(C)C)ccc1NCC#Cc1sc2c(N[C@@H]3CCN(C)C[C@@H]3F)cccc2c1CC(F)(F)F` [Example 27, (S)-(4-((3-(7-(((3S,4R)-3-fluoro-1-methylpiperidin-4-yl)amino)-3-(2,2,2-trifluoroethyl)benzo[b]thiophen-2-yl)prop-2-yn-1-yl)amino)-3-methoxyphenyl)(imino)(isopropyl)-16-sulfanone], the EC50 on p53(Y220C) (setting [1]) was found to be 74 nM.

For `COc1cc([S@](=N)(=O)C2CCOCC2)ccc1NCC#Cc1sc2c(N[C@@H]3CCN(C)C[C@@H]3F)cccc2c1CC(F)(F)F` [Example 25, (R)-(4-((3-(7-(((3S,4R)-3-fluoro-1-methylpiperidin-4-yl)amino)-3-(2,2,2-trifluoroethyl)benzo[b]thiophen-2-yl)prop-2-yn-1-yl)amino)-3-methoxyphenyl)(imino)(tetrahydro-2H-pyran-4-yl)-16-sulfanone], the EC50 on p53(Y220C) (setting [1]) came to 62 nM.

Take `COc1cc([S@](C)(=N)=O)ccc1NCC#Cc1sc2c(N[C@@H]3CC[N@+](C)([O-])C[C@@H]3F)cccc2c1CC(F)(F)F` (single isomer, unassigned) [Example 8]: the EC50 on p53(Y220C)_NUGC-3 is 7230 nM; on p53(Y220C) (setting [1]), 38 nM.

On to `COc1cc(-c2nc(=O)o[nH]2)ccc1NCC#Cc1sc2c(N[C@@H]3CCN(C)C[C@@H]3F)cccc2c1CC(F)(F)F` [Example 40, 3-(4-((3-(7-(((3S,4R)-3-fluoro-1-methylpiperidin-4-yl)amino)-3-(2,2,2-trifluoroethyl)benzo[b]thiophen-2-yl)prop-2-yn-1-yl)amino)-3-methoxyphenyl)-1,2,4-oxadiazol-5(2H)-one], for which the EC50 at p53(Y220C) (setting [1]) is 473 nM.

As for `COc1cc(P(C)(C)=O)ccc1NCC#Cc1sc2c(N[C@H]3CCCN(C)C3)cccc2c1CC(F)(F)F` [Example 29, (S)-(3-methoxy-4-((3-(7-((1-methylpiperidin-3-yl)amino)-3-(2,2,2-trifluoroethyl)benzo[b]thiophen-2-yl)prop-2-yn-1-yl)amino)phenyl)dimethylphosphine oxide], the EC50 at p53(Y220C) (setting [1]) was 155 nM.

For `COc1cc([S@](=N)(=O)C(F)F)ccc1NCC#Cc1sc2c(N[C@@H]3CCN(C)C[C@@H]3F)cccc2c1CC(F)(F)F` [Example 51, (S)-(difluoromethyl)(4-((3-(7-(((3S,4R)-3-fluoro-1-methylpiperidin-4-yl)amino)-3-(2,2,2-trifluoroethyl)benzo[b]thiophen-2-yl)prop-2-yn-1-yl)amino)-3-methoxyphenyl)(imino)-16-sulfanone], on p53(Y220C) (setting [1]), the EC50 was determined as 188 nM.

In turn, `COc1cc(P(C)(C)=O)ccc1NCC#Cc1sc2c(N[C@H]3CN4CCC3CC4)cccc2c1CC(F)(F)F` [Example 46, (R)-(3-methoxy-4-((3-(7-(quinuclidin-3-ylamino)-3-(2,2,2-trifluoroethyl)benzo[b]thiophen-2-yl)prop-2-yn-1-yl)amino)phenyl)dimethylphosphine oxide] showed an EC50 at p53(Y220C) of 124 nM.

With `COc1cc(P(C)(C)=O)ccc1NCC#Cc1sc2c(N[C@H]3CCN(C)C[C@H]3F)cccc2c1C(C)C(F)(F)F` (stereo partly drawn) [Example 17, (4-((3-(7-(((3R,4S)-3-fluoro-1-methylpiperidin-4-yl)amino)-3-(1,1,1-trifluoropropan-2-yl)benzo[b]thiophen-2-yl)prop-2-yn-1-yl)amino)-3-methoxyphenyl)dimethylphosphine oxide], at p53(Y220C) (setting [1]), the EC50 stood at 251 nM.

For the compound `CN1CC[C@@H](Nc2cccc3c(CC(F)(F)F)c(C#CCNc4ccc(P(C)(C)=O)c5ccoc45)sc23)[C@@H](F)C1` [Example 2, (7-((3-(7-(((3S,4R)-3-fluoro-1-methylpiperidin-4-yl)amino)-3-(2,2,2-trifluoroethyl)benzo[b]thiophen-2-yl)prop-2-yn-1-yl)amino)benzofuran-4-yl)dimethylphosphine oxide], the EC50 on p53(Y220C)_NUGC-3 was determined as 196 nM.

In the case of `CN1CC[C@@H](Nc2cccc3c(CC(F)(F)F)c(C#C[C@H]4Cc5cc(P(C)(C)=O)ccc5N4)sc23)[C@@H](F)C1` [Example 22, ((R)-2-((7-(((3S,4R)-3-fluoro-1-methylpiperidin-4-yl)amino)-3-(2,2,2-trifluoroethyl)benzo[b]thiophen-2-yl)ethynyl)indolin-5-yl)dimethylphosphine oxide], the EC50 at p53(Y220C) (setting [1]) turned out to be 313 nM.

For `COc1cc(P(C)(C)=O)ccc1NCC#Cc1sc2c(N[C@H]3CCN(C)C[C@@H]3F)cccc2c1CC(F)(F)F` [Example 38, (4-((3-(7-(((3S,4S)-3-fluoro-1-methylpiperidin-4-yl)amino)-3-(2,2,2-trifluoroethyl)benzo[b]thiophen-2-yl)prop-2-yn-1-yl)amino)-3-methoxyphenyl)dimethylphosphine oxide], the EC50 on p53(Y220C) (setting [1]) worked out at 373 nM.
